Results published in patent publication US20250339415A1, “DISULFIDE COMPOUNDS AS MEDICAMENTS” (CYTACOAT AB, priority 2021, published 2025).
Structures can show the parent of a compound that is named as a salt.

Experiments:
Type in all cases: cell-based
[1] = test system: Enterococcus faecalis #28 (KI, Clinical Isolate); test: Minimum inhibitory concentration (MIC), visible growth
Description: (§1) • 1. Using a sterile inoculating loop, transfer bacteria/Candida albicans from frozen stock culture and streak them on a fresh LA plate. • 2. Incubate the plate at 37° C. overnight (o/n) (18-24 h).
(§2) • 1. Prepare bacterial culture by adding 20 ml Mueller Hinton broth (*) to a 250-ml Erlenmeyer flask with sidearm. • 2. Using a sterile inoculating loop, pick approximately 10 colonies from the o/n bacterial culture and transfer bacteria to the flask. • 3. Incubate the E-flask with bacteria on a rotating shaker at 37° C. until OD590=0.40. This OD should equal an approximate bacterial count of 1×10^8 cfu/ml (**) • This is measured using a colorimeter (or spectrophotometer). Set reference and press R (=reference) first, then measure the bacterial culture by pressing T (=test). • 4. At OD590 0.40, serially dilute the bacterial suspension 1:10 000 in Mueller Hinton broth to obtain a bacterial target concentration of 1×10^4 cfu/ml. Determine the initial inoculation by serially diluting 0.1 ml in 0.9 ml blanks of sterile PBS and plating 0.1 ml aliquots to LA plates, preferably. • 5. Different concentrations of the tested compound are prepared in 0.6-0.8 ml of the final dilution of bacterial suspension and placed in 2-ml test tubes. • 6. Incubate test tubes in an orbital shaker incubator at 37° C. for 24 h.
(§3) • 7. Analyze visible growth, i.e. “Foggy” or “Clear”. MIC is being defined as the interval between the highest “Foggy” and the lowest “Clear” concentration of the compound.
(§4) Different concentrations of PDEA (Example 1) in Mueller Hinton medium were prepared. Bacteria were inoculated to a concentration of 20 000 CFU/ml and incubated at 37° C. for 24 hours. Minimum inhibitory concentrations (MICs) were determined by analyzing visible growth, i.e., readouts were “Clear” and “Foggy”.
(§5) Different concentrations of the quaternary ammonium PDEA (Example 2) in Mueller Hinton medium were prepared. Bacteria were inoculated to a concentration of 20 000 CFU/ml and incubated at 37° C. for 24 hours. Minimum inhibitory concentrations (MICs) were determined by analyzing visible growth, i.e., readouts were “Clear” and “Foggy”.
(§6) Different concentrations of this compound in Mueller Hinton medium were prepared. Bacteria were inoculated to a concentration of 20 000 CFU/ml and incubated at 37° C. for 24 hours. Minimum inhibitory concentrations (MICs) were determined by analyzing visible growth, i.e., readouts were “Clear” and “Foggy”.
(§7) Different concentrations of this compound were prepared in Mueller Hinton broth. Bacteria were inoculated to a concentration of 20 000 CFU/ml and incubated at 37° C. for 24 hours. Minimum inhibitory concentrations (MICs) were determined by analyzing visible growth, i.e., readouts were “Clear” and “Foggy”.

[2] = test system: Enterococcus faecium #11 (KI, Clinical Isolate); test: as above
Description: as §1, §2, §3, §4, §5, §6, §7

[3] = test system: Escherichia coli CFT073; test: as above
Description: as §1, §2, §3, §4, §5, §6, §7

[4] = test system: Klebsiella pneumoniae AO15200; test: as above
Description: as §1, §2, §3, §4, §5, §6, §7

[5] = test system: Pseudomonas aeruginosa PA02; test: as above
Description: as §1, §2, §3, §4, §5, §6, §7

[6] = test system: Staphylococcus aureus B5381; test: as above
Description: as §1, §2, §3, §4, §5, §6, §7

[7] = test system: Staphylococcus epidermidis Se19 (Clinical Isolate, Jan Ingemar Falk); test: as above
Description: as §1, §2, §3, §4, §5, §6, §7

[8] = test system: Candida albicans; test: Minimum inhibitory concentration (MIC), visible growth, YPD broth
Description: as §1, §2, §3
(*) When testing Candida albicans, Yeast extract Peptone Dextrose (YPD) broth is being used.
(**) For Candida albicans it is equal to 1×10^7
Different concentrations of PDEA were also prepared in Yeast extract Peptone Dextrose (YPD) broth. Candida albicans were inoculated to a concentration of 20 000 CFU/ml and incubated at 37° C. for 24 hours. Readouts were “Clear” and “Foggy”.
Different concentrations of the quaternary ammonium PDEA (Example 2) were also prepared in Yeast extract Peptone Dextrose (YPD) broth. Candida albicans were inoculated to a concentration of 20 000 CFU/ml and incubated at 37° C. for 24 hours. Readouts were “Clear” and “Foggy”.
Different concentrations of the Para position-PDEA” is (S)-4-pyridylthio cysteamine were also prepared in Yeast extract Peptone Dextrose (YPD) broth. Candida albicans were inoculated to a concentration of 20 000 CFU/ml and incubated at 37° C. for 24 hours. Readouts were “Clear” and “Foggy”.
Different concentrations of “Carboxylic acid PDEA” is 3-(2-Pyridyldithio)propanoic acid (CAS: 68617-64-1) were also prepared in Yeast extract Peptone Dextrose (YPD) broth. Candida albicans were inoculated to a concentration of 20 000 CFU/ml and incubated at 37° C. for 24 hours. Readouts were “Clear” and “Foggy”.

For NCCSSc1ccccn1 [PDEA, 2-(Pyridyldithio)ethylamine (hydrochloride)], the visible growth readout ([1]; 0.05 mM) was “Foggy”, the visible growth readout ([1]; 0.1 mM) was “Foggy” and the visible growth readout ([1]; 0.2 mM) was “Clear”. For the same compound, the visible growth readout ([1]; 0.4 mM) was “Clear”, the MIC ([1]; Enterococcus faecalis, 24 h) was 100 to 200 µM and the visible growth readout ([2]; 0.01 mM) was “Foggy”. For the same compound, the visible growth readout ([2]; 0.025 mM) was “Foggy”, the visible growth readout ([2]; 0.05 mM) was “Clear” and the visible growth readout ([2]; 0.1 mM) was “Clear”. The MIC ([2]; Enterococcus faecium, 24 h) was 25 to 50 µM, the visible growth readout ([3]; 0.01 mM) was “Foggy” and the visible growth readout ([3]; 0.025 mM) was “Foggy”. For the same compound, the visible growth readout ([3]; 0.05 mM) was “Foggy”, the visible growth readout ([3]; 0.1 mM) was “Clear” and the MIC ([3]; Escherichia coli, CFT073, 24 h) was 50 to 100 µM. The visible growth readout ([4]; 0.01 mM) was “Foggy”, the visible growth readout ([4]; 0.025 mM) was “Foggy” and the visible growth readout ([4]; 0.05 mM) was “Foggy”. For the same compound, the visible growth readout ([4]; 0.1 mM) was “Clear”, the MIC ([4]; Klebsiella pneumoniae, AO15200, 24 h) was 50 to 100 µM and the visible growth readout ([5]; 0.05 mM) was “Foggy”. For the same compound, the visible growth readout ([5]; 0.1 mM) was “Foggy”, the visible growth readout ([5]; 0.2 mM) was “Clear” and the visible growth readout ([5]; 0.4 mM) was “Clear”. For the same compound, the MIC ([5]; Pseudomonas aeruginosa, PA02, 24 h) was 100 to 200 µM, the visible growth readout ([6]; 0.05 mM) was “Foggy” and the visible growth readout ([6]; 0.1 mM) was “Foggy”. The visible growth readout ([6]; 0.2 mM) was “Clear”, the visible growth readout ([6]; 0.4 mM) was “Clear” and the MIC ([6]; Staphylococcus aureus, B5381, 24 h) was 100 to 200 µM. For the same compound, the visible growth readout ([7]; 0.01 mM) was “Foggy”, the visible growth readout ([7]; 0.025 mM) was “Foggy” and the visible growth readout ([7]; 0.05 mM) was “Clear”. The visible growth readout ([7]; 0.1 mM) was “Clear”, the MIC ([7]; Staphylococcus epidermidis, 24 h) was 25 to 50 µM and the visible growth readout ([8]; 0.01 mM) was “Foggy”. For the same compound, the visible growth readout ([8]; 0.025 mM) was “Foggy”, the visible growth readout ([8]; 0.05 mM) was “Foggy” and the visible growth readout ([8]; 0.1 mM) was “Foggy”. The visible growth readout ([8]; 0.2 mM) was “Foggy”, the visible growth readout ([8]; 0.4 mM) was “Foggy” and the visible growth readout ([8]; 0.8 mM) was “Clear”. For the same compound, the visible growth readout ([8]; 1.6 mM) was “Clear” and the MIC ([8]; Candida albicans, 24 h) was 400 to 800 µM.
